Measured values as given in patent publication US11247984B2, “Uracil containing compounds” (CV6 Therapeutics (NI) Limited, priority 2017, dated 2022).
pIC50: −log10 of the molar value.

What was measured:
[1] = test system: colorectal (HCT116 and SW620) cell line models; test: MTS growth inhibition assay; type: cell-based; conditions: 5-FU between 0 and 100 μmol/L
Experimental: The Cell Titer AQueous MTS assay (Promega) is carried out according to the manufacturers guidelines. […] The combination effect is determined by the combination index (CI) method utilizing Calcusyn software (Biosoft, Ferguson, Mo.). Fraction affected (FA) is calculated from the percent growth inhibition: FA=[…]. CI values <1, synergism; 1-1.2, additive and >1.2, antagonism.
Test compounds are evaluated for their antitumor activity in colorectal cancer cells using the MTS growth inhibition assay. HCT116 and SW620 cells are exposed to increasing concentrations of each agent for 72 hours and growth inhibition is directly compared to vehicle-treated controls. The NSCLC cell lines A549 and H1299 are exposed to increasing concentrations of each agent for 72 hours and growth inhibition is directly compared to vehicle-treated controls.
MTS growth inhibition assays are performed to evaluate the effectiveness of the test compounds alone and in combination with the fluoropyrimidine thymidylate synthase (TS) inhibitor 5-fluorouracil (5-FU) at inhibiting the growth of colorectal (HCT116 and SW620) cell line models. […] Simultaneous treatment with increasing concentrations of 5-FU and a test compound at fixed concentrations of 25 μmol/L is determined.

[2] = target: T1, recombinant human deoxyuridine nucleotidohydrolase (dUTPase) (Homo sapiens, UniProt P33316); test: fluorescence-based dUTPase inhibition assay; type: biochemical; conditions: for % relative inhibition vs. positive control: mean across three concentrations, typically 100, 50 and 25 μmol/L, compared to in-run positive control
T1 construct: made in house
T1 sequence (P33316 1-164 isoform P33316-2): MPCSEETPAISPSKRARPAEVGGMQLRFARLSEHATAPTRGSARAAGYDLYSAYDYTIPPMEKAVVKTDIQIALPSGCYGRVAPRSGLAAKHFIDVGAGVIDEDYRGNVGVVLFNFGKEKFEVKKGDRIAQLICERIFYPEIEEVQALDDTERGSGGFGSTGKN
Excerpt: Recombinant human deoxyuridine nucleotidohydrolase (dUTPase) is expressed and purified as described in Ladner R D, Carr S A, Huddleston M J, McNulty D E, Caradonna S J. J Biol Chem. 1996 Mar. 29; 271(13):7752-7. All drugs stocks are aliquoted and diluted as appropriate prior to use. The oligonucelotide primer, templates and fluorophore- and quencher-labeled detection probes are synthesized by Integrated DNA Technologies (Coralville, Iowa), subjected to polyacrylamide gel electrophoresis purification and reconstituted in Omnipur sterile nuclease-free water (EMD Chemicals USA, Gibbstown N.J.) at a stock concentration of 100 μmol/L. The two non-emissive (dark) quenching molecules incorporated into the detection probes include the Iowa black fluorescein quencher (IBFQ; absorption max 531 nm) and ZEN (non-abbreviation; absorption max 532 nm). The fluorescent label utilized is 6-FAM (5′-carboxyfluorescein; excitation max.=494 nm, emission max.=520 nm). Probes are further diluted to a working stock of 10 μmol/L and aliquoted to avoid repeated freeze/thaw cycles. AmpliTaq Gold DNA Polymerase, GeneAmp 10×PCR Buffer 2, MgCl2 and MicroAmp Optical 96-well Reaction Plates are purchased from Applied Biosystems (Carlsbad, Calif.). dNTPs are purchased individually at stock concentrations of 100 mmol/L from New England Biolabs at HPLC-certified >99% purity (Ipswich, Mass.).
Reaction mixtures contained primer, probe and template at an equimolar final concentration of 0.4 μmol/L. Magnesium chloride (MgCl2) is included at a final concentration of 2 mmol/L. Non-limiting dNTPs are included in the reaction mix in excess at a final concentration of 100 μmol/L (dUTP/dTTP is excluded). AmpliTaq Gold DNA polymerase is added at 0.875 U/reaction, 2.5 μl of 10×PCR buffer 2 added and nuclease-free ddH2O added to a final reaction volume of 25 μl. For dUTP inhibition analysis, the volume of ddH2O is further modified to accommodate an additional 1 μl of dUTPase (10 ng/μt) and 1 μl of inhibitor or DMSO control. Thermal profiling and fluorescence detection is performed using a customized thermal program on board a Roche Lightcycler LC480 Instrument II. For analysis of dNTPs, the thermal profile consisted of an 8 min 37° C. step followed by a 10 min 95° C. step to ‘hot-start’ the Taq polymerase and a primer extension time of up to 30 min at 60° C. Raw fluorescence spectra for 6-FAM is measured at specified time intervals to follow assay progression on board a Roche LightCycler 480 Software Version 1.5 and exported and analyzed in Microsoft Excel (Microsoft, Redmond Wash.) and Prism (GraphPad Software, La Jolla Calif.). Fluorescence values for blank reactions (limiting dNTP omitted) are subtracted to give normalized fluorescence units (NFU) to account for background fluorescence.
Test compounds are screened in a fluorescence-based assay. The assay employs a DNA polymerase-based approach utilizing an oligonucleotide template with 3 distinct regions: a 3′ primer binding region, a mid-template dUTP/thymidine triphosphate (TTP) detection region and a 5′ 6-[…] (FAM)-labeled probe binding region that incorporates a black hole quenching moiety. During the reaction, the probe and primer hybridize to the oligonucleotide template to form the template:primer:probe complex. When Taq polymerase binds to the primer in the TPP complex and dUTP is present, successful extension of the nascent strand occurs and the inherent 5′ to 3′ exonuclease activity of Taq polymerase cleaves and displaces the 6-FAM-labeled probe in a 5′ to 3′ direction, releasing the 6-FAM fluorophore from its proximity to the […]. This displacement effectively disrupts the Forster resonance energy transfer (FRET) and the resulting fluorescence detected upon excitation is directly proportional to the amount of the dUTP available in the assay for incorporation. […]

[3] = test system: colorectal (HCT116), breast (MCF-7) and non-small cell lung (H1299, A549, H358 and H460) cell line models; test: colony forming assay; type: cell-based; conditions: FUdR between 0.5 and 2.5 μmol/L; all cell lines evaluated
Experimental: Colony forming assay showing the ability of colon (SW620, HCT116), non-small cell lung (A549, H460, H1299 and H358) and breast (MCF7) cancer cells to survive and proliferate following transient 24 hour exposure to test compounds, FUdR and combinations are determined. Specifically, cells are seeded at densities between 50 and 100 cells/well in 24-well plates. Twenty-four hours later, cells are treated with increasing concentrations of a rtest compound, a fixed dose of FUdR and combinations of these. After 24 hours, drug is removed, cells are rinsed and allowed to outgrow for 10-14 days. At the conclusion of the outgrowth, cells are fixed in 60% ice cold methanol and stained with 0.1% crystal violet, scanned and counted. Data is presented as percentage of untreated controls (mean±SD). Fraction affected and combination indexes are calculated according to the method of Chou and Talalay where <1 is indicative of a synergistic drug interaction.
Colony forming assays are performed to evaluate the effectiveness of test compounds alone and in combination with the fluoropyrimidine thymidylate synthase (TS) inhibitor fluorodeoxyuridine (FUdR) at reducing cancer cell viability in colorectal (HCT116), breast (MCF-7) and non-small cell lung (H1299, A549, H358 and H460) cell line models. […]

Structure (SMILES)	% relative inhibition vs. positive control [2]	also measured
O=c1[nH]cc(F)c(=O)[nH]1 [Example 5-FU, 5-fluorouracil]	–	growth inhibition [1]: dose-dependent increases in growth inhibition
C[C@H](NS(=O)(=O)CCCCCn1ccc(=O)[nH]c1=O)c1ccc(F)c(OCC2CC2)c1 [Example 86, (S)—N-(1-(3-(cyclopropylmethoxy)-4-fluorophenyl)ethyl)-5-(2,4-dioxo-3,4-dihydropyrimidin-1(2H)-yl)pentane-1-sulfonamide]	54%	–
O=c1[nH]c(=O)n([C@H]2C[C@H](O)[C@@H](CO)O2)cc1F [FUdR, fluorodeoxyuridine]	–	colonies formed [3]: dose-dependent decreases in colonies formed
C[C@@H](NS(=O)(=O)CCCCCn1ccc(=O)[nH]c1=O)c1ccc(F)c(OCC2CC2)c1 [Example 84, (R)—N-(1-(3-(cyclopropylmethoxy)-4-fluorophenyl)ethyl)-5-(2,4-dioxo-3,4-dihydropyrimidin-1(2H)-yl)pentane-1-sulfonamide]	214%	pIC50 ([2]; recombinant dUTPase, 8 min at 37° C.): 6.52
CC[C@@H](NS(=O)(=O)CCCOCN1CCC(=O)NC1=O)c1ccc(F)c(OCC2CC2)c1 [Example 83, (R)—N-(1-(3-(cyclopropylmethoxy)-4-fluorophenyl)propyl)-3-((2,4-dioxotetrahydropyrimidin-1(2H)-yl)methoxy)propane-1-sulfonamide]	166%	–
CC(C)COc1cc(C(C)(C)NS(=O)(=O)CC/C=C/CN2CCC(=O)NC2=O)ccc1F [Example 81, (E)-5-(2,4-dioxotetrahydropyrimidin-1(2H)-yl)-N-(2-(4-fluoro-3-isobutoxyphenyl)propan-2-yl)pent-3-ene-1-sulfonamide]	80%	–
C[C@@H](NS(=O)(=O)CCCOCN1CCC(=O)NC1=O)c1cccc(OCC2CC2)c1 [Example 82, (R)—N-(1-(3-(cyclopropylmethoxy)phenyl)ethyl)-3-((2,4-dioxotetrahydropyrimidin-1(2H)-yl)methoxy)propane-1-sulfonamide]	174%	–
CC(C)[C@@H](NS(=O)(=O)CC/C=C/CN1CCC(=O)NC1=O)c1ccc(F)c(OCC2CC2)c1 [Example 79, (R,E)-N-(1-(3-(cyclopropylmethoxy)-4-fluorophenyl)-2-methylpropyl)-5-(2,4-dioxotetrahydropyrimidin-1(2H)-yl)pent-3-ene-1-sulfonamide]	145%	–
CC(C)[C@@H](NS(=O)(=O)CCCCCN1CCC(=O)NC1=O)c1ccc(F)c(OCC2CC2)c1 [Example 80, (R)—N-(1-(3-(cyclopropylmethoxy)-4-fluorophenyl)-2-methylpropyl)-5-(2,4-dioxotetrahydropyrimidin-1(2H)-yl)pentane-1-sulfonamide]	103%	–
